# In patent US12565501B2, “Muscarinic acetylcholine M1 receptor antagonists” (Contineum Therapeutics, Inc., priority 2019, dated 2026):
# Target: T1, human M1 receptor (Homo sapiens, UniProt P11229)
# T1 sequence (P11229 1-460): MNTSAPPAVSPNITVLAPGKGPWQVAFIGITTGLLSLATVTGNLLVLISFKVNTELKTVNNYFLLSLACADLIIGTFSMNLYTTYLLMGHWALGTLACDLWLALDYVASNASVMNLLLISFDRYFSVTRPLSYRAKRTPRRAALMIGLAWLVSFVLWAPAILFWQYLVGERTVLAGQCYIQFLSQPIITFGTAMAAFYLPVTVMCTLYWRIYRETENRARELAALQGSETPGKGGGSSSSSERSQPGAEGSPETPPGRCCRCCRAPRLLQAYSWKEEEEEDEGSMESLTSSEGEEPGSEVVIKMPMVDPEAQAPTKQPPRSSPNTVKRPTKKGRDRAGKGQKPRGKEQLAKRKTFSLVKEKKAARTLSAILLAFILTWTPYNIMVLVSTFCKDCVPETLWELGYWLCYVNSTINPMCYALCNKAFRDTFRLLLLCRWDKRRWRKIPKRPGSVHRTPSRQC
# Assay: In vitro functional assay of muscarinic acetylcholine receptor activity (aequorin calcium flux, reversal of EC80 acetylcholine response)
# Format: cell-based
# Details: CHO-K1 cells stably expressing human M1 receptor with aequorin; acetylcholine at EC80; calcium flux (luminescence); read-out: M1 IC50
# Outline: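 CHO-K1 cells expressing human M1 and aequorin, loaded with 5 μM coelenterazine for 4 h, preincubated with compound 30 min at room temperature, then challenged with EC80 acetylcholine.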
row,Structure (SMILES),IC50
1,"N#Cc1ccc(N2C[C@H]3CC[C@@H]2CN3C(=O)CNC2(c3ccc(F)cc3F)CC2)nc1 [Example 81, 6-((1R,4R)-5-((1-(2,4-difluorophenyl)cyclopropyl)glycyl)-2,5-diazabicyclo[2.2.2]octan-2-yl)nicotinonitrile]",> 1000 nM
2,"N#Cc1ccc(N2C[C@@H]3C[C@H]2CN3C(=O)CNC2(c3ccc(F)cc3F)CC2)nc1 [Example 82, 6-((1S,4S)-5-((1-(2,4-difluorophenyl)cyclopropyl)glycyl)-2,5-diazabicyclo[2.2.1]heptan-2-yl)nicotinonitrile]",> 1000 nM
3,"N#Cc1ccc(N2C[C@@H]3CC[C@H]2CN3C(=O)CNC2(c3ccc(F)cc3F)CC2)nc1 [Example 83, 6-((1S,4S)-5-((1-(2,4-difluorophenyl)cyclopropyl)glycyl)-2,5-diazabicyclo[2.2.2]octan-2-yl)nicotinonitrile]",1000 to 10000 nM
4,"N#Cc1cc(N2C3CCC2CN(C(=O)CNC2(c4ccc(F)cc4F)CC2)C3)ccn1 [Example 84, 4-(3-((1-(2,4-difluorophenyl)cyclopropyl)glycyl)-3,8-diazabicyclo[3.2.1]octan-8-yl)picolinonitrile]",100 to 1000 nM
5,"N#Cc1ccc(N2C3CCC2CN(C(=O)CNC2(c4ccc(F)cc4F)CC2)C3)cc1 [Example 85, 4-(3-((1-(2,4-difluorophenyl)cyclopropyl)glycyl)-3,8-diazabicyclo[3.2.1]octan-8-yl)benzonitrile]",10 to 100 nM
6,"Cc1ccc(N2C3CCC2CN(C(=O)CNC2(c4ccc(F)cc4F)CC2)C3)nn1 [Example 86, 2-((1-(2,4-difluorophenyl)cyclopropyl)amino)-1-(8-(6-methylpyridazin-3-yl)-3,8-diazabicyclo[3.2.1]octan-3-yl)ethan-1-one]",1000 to 10000 nM
7,"COc1cccc([C@H](C)NCC(=O)N2CC3CCC(C2)N3c2ccc(C#N)cn2)c1 [Example 92, 6-(3-(((S)-1-(3-methoxyphenyl)ethyl)glycyl)-3,8-diazabicyclo[3.2.1]octan-8-yl)nicotinonitrile]",< 10 nM
8,"COc1cc([C@H](C)NCC(=O)N2C[C@H]3CC[C@@H](C2)N3c2ccc(C#N)cn2)ccn1 [Example 93, 6-(3-(((S)-1-(2-methoxypyridin-4-yl)ethyl)glycyl)-3,8-diazabicyclo[3.2.1]octan-8-yl)nicotinonitrile]",< 10 nM
9,"N#Cc1ccc(N2C3CCC2CN(C(=O)CNC2(c4ccccc4)CC2)C3)nc1 [Example 94, 6-(3-((1-phenylcyclopropyl)glycyl)-3,8-diazabicyclo[3.2.1]octan-8-yl)nicotinonitrile]",1000 to 10000 nM
10,"N#Cc1ccc(N2C3CCC2CN(C(=O)CNC2(c4cccc(F)c4)CC2)C3)nc1 [Example 95, 6-(3-((1-(3-fluorophenyl)cyclopropyl)glycyl)-3,8-diazabicyclo[3.2.1]octan-8-yl)nicotinonitrile]",10 to 100 nM
11,"N#Cc1ccc(N2C3CCC2CN(C(=O)CNC2(c4ccc(F)cc4)CC2)C3)nc1 [Example 96, 6-(3-((1-(4-fluorophenyl)cyclopropyl)glycyl)-3,8-diaabicyclo[3.2.1]octan-8-yl)nicotinonitrile]",100 to 1000 nM
12,"COc1ccccc1C1(NCC(=O)N2CC3CCC(C2)N3c2ccc(C#N)cn2)CC1 [Example 97, 6-(3-((1-(2-methoxyphenyl)cyclopropyl)glycyl)-3,8-diazabicyclo[3.2.1]octan-8-yl)nicotinonitrile]",< 10 nM
13,COc1cccc(C2(NCC(=O)N3CC4CCC(C3)N4c3ccc(C#N)cn3)CC2)c1 [Example 98],< 10 nM
14,"N#Cc1ccc(C2(NCC(=O)N3CC4CCC(C3)N4c3ccc(C#N)cn3)CC2)cc1 [Example 100, 6-(3-((1-(4-cyanoplKml)cyclopropyl)glycyl)-3,8-diazabicyclo[3.2.1]oclaii-8-yl)mcotiiiomtrile]",> 1000 nM
15,"N#Cc1ccc(N2C3CCC2CN(C(=O)CNC2(c4ccccc4Br)CC2)C3)nc1 [Example 101, 6-(3-((1-(2-bromophenyl)cyclopropyl)glycyl)-3,8-diazabicyclo[3.2.1]octan-8-yl)nicotinonitrile]",10 to 100 nM
16,"N#Cc1ccc(N2C3CCC2CN(C(=O)CNC2(c4ccncc4)CC2)C3)nc1 [Example 102, 6-(3-((1-(pyridin-4-yl)cyclopropyl)glycyl)-3,8-diazabicyclo[3.2.1]octan-8-yl)nicotinonitrile]",100 to 1000 nM
17,"COc1cccc(C2(NCC(=O)N3CC4CCC(C3)N4c3ccc(C#N)cn3)CC2)c1F [Example 103, 6-(3-((1-(2-fluoro-3-methoxyphenyl)cyclopropyl)glycyl)-3,8-diazabicyclo[3.2.1]octan-8-yl)nicotinonitrile]",10 to 100 nM

row,Structure (SMILES),IC50
1,"N#Cc1ccc(N2C3CCC2CN(C(=O)CN2CC(c4ccc(F)cc4)C2)C3)nc1 [Example 105, 6-(3-(2-(3-(4-fluorophenyl)azetidin-1-yl)acetyl)-3,8-diazabicyclo[3.2.1]octan-8-yl)nicotinonitrile]",> 1000 nM
2,"N#Cc1ccc(N2C3CCC2CN(C(=O)CNC2(c4cc(F)cc(F)c4)CC2)C3)nc1 [Example 107, 6-(3-((1-(3,5-difluorophenyl)cyclopropyl)glycyl)-3,8-diazabicyclo[3.2.1]octan-8-yl)nicotinonitrile]",10 to 100 nM
3,COc1ccc(C2(NCC(=O)N3CC4CCC(C3)N4c3ccc(C#N)cn3)CC2)cc1F [Example 108],100 to 1000 nM
4,"COc1cc(C2(NCC(=O)N3CC4CCC(C3)N4c3ccc(C#N)cn3)CC2)ccc1F [Example 109, 6-(3-((1-(4-fluoro-3-methoxyphenyl)cyclopropyl)glycyl)-3,8-diazabicyclo[3.2.1]octan-8-yl)nicotinonitrile]",< 10 nM
5,"COc1cc(F)cc(C2(NCC(=O)N3CC4CCC(C3)N4c3ccc(C#N)cn3)CC2)c1 [Example 110, 6-(3-((1-(3-fluoro-5-methoxyphenyl)cyclopropyl)glycyl)-3,8-diazabicyclo[3.2.1]octan-8-yl)nicotinonitrile]",< 10 nM
6,"COc1ccc(F)c(C2(NCC(=O)N3CC4CCC(C3)N4c3ccc(C#N)cn3)CC2)c1 [Example 111, 6-(3-((1-(2-fluoro-5-methoxyphenyl)cyclopropyl)glycyl)-3,8-diazabicyclo[3.2.1]octan-8-yl)nicotinonitrile]",< 10 nM
7,"COc1c(F)ccc(C2(NCC(=O)N3CC4CCC(C3)N4c3ccc(C#N)cn3)CC2)c1F [Example 112, 6-(3-((1-(2,4-difluoro-3-methoxyphenyl)cyclopropyl)glycyl)-3,8-diazabicyclo[3.2.1]octan-8-yl)nicotinonitrile]",< 10 nM
8,"COc1cc(C2(NCC(=O)N3CC4CCC(C3)N4c3ccc(C#N)cn3)CC2)c(F)cc1F [Example 113, 6-(3-((1-(2,4-difluoro-5-methoxyphenyl)cyclopropyl)glycyl)-3,8-diazabicyclo[3.2.1]octan-8-yl)nicotinonitrile]",< 10 nM
9,"COc1cccc(C2(NCC(=O)N3CC4CCC(C3)N4c3ccc(C#N)cn3)CCC2)c1 [Example 114, 6-(3-((1-(3-methoxyphenyl)cyclobutyl)glycyl)-3,8-diazabicyclo[3.2.1]octan-8-yl)nicotinonitrile]",< 10 nM
10,"N#Cc1ccc(N2C3CCC2CN(C(=O)CNC2(c4ccc(F)cc4F)CCC2)C3)nc1 [Example 115, 6-(3-((1-(2,4-difluorophenyl)cyclobutyl)glycyl)-3,8-diazabicyclo[3.2.1]octan-8-yl)nicotinonitrile]",10 to 100 nM
11,"COc1ccc(F)c(C2(NCC(=O)N3CC4CCC(C3)N4c3ccc(C#N)cn3)CCC2)c1 [Example 116, 6-(3-((1-(2-fluoro-5-methoxyphenyl)cyclobutyl)glycyl)-3,8-diazabicyclo[3.2.1]octan-8-yl)nicotinonitrile]",10 to 100 nM
12,"COc1ccc(F)c(C2(NCC(=O)N3CC4CCC(C3)N4c3ccc(C#N)cn3)CCC2)c1F [Example 117, 6-(3-((1-(2,6-difluoro-3-methoxyphenyl)cyclobutyl)glycyl)-3,8-diazabicyclo[3.2.1]octan-8-yl)nicotinonitrile]",100 to 1000 nM
13,"N#Cc1ccc(N2C3CCC2CN(C(=O)CNC2(c4cccc(OC(F)(F)F)c4)CCC2)C3)nc1 [Example 119, 6-(3-((1-(3-(trifluoromethoxy)phenyl)cyclobutyl)glycyl)-3,8-diazabicyclo[3.2.1]octan-8-yl)nicotinonitrile]",100 to 1000 nM
14,"N#Cc1ccc(N2C3CCC2CN(C(=O)CCC(F)(F)c2cccc4ncccc24)C3)nc1 [Example 122, 6-(3-(4,4-difluoro-4-(quinolin-5-yl)butanoyl)-3,8-diazabicyclo[3.2.1]octan-8-yl)nicotinonitrile]",< 10 nM
15,"N#Cc1ccc(N2C3CCC2CN(C(=O)/C=C/C(F)(F)c2ccc(F)cc2)C3)nc1 [Example 123, 6-(3-((E)-4,4-difluoro-4-(4-fluorophenyl)but-2-enoyl)-3,8-diazabicyclo[3.2.1]octan-8-yl)nicotinonitrile]",10 to 100 nM
16,"N#Cc1ccc(N2C3CCC2CN(C(=O)CCC(F)(F)c2ccc(F)cc2)C3)nc1 [Example 124, 6-(3-(4,4-difluoro-4-(4-fluorophenyl)butanoyl)-3,8-diazabicyclo[3.2.1]octan-8-yl)nicotinonitrile]",10 to 100 nM
17,"N#Cc1ccc(N2[C@@H]3CC[C@H]2CN(C(=O)/C=C/C(F)(F)c2cccc4nccnc24)C3)nc1 [Example 125, 6-(3-((E)-4,4-difluoro-4-(quinoxalin-5-yl)but-2-enoyl)-3,8-diazabicyclo[3.2.1]octan-8-yl)nicotinonitrile]",< 10 nM
